Data on 1 compound can be found in patent US7273896B2, “Compositions and methods of using a transient colorant” (Angiotech Pharmaceuticals (US), Inc., priority 2003, dated 2007).

The data set can be described thus: Solubility of fluorescein in COH102 and COH206 buffer. In kind it is physicochemical. The following applies: 0.1% in COH102 and COH206 buffer. The method, then: General Procedures. Transient colorants were subjected to irradiation or other sterilization methods to determine if they would be stable. Standard chemical mixing, measuring, and analytical methods were utilized. Solubilities for effective amounts of transient colorants mixed in starting materials (and in the final compositions) were verified by routine mixing followed by analytical procedures.
Fluorescein was tested at 0.1% in COH102 and COH206 buffer and found to be soluble. To test in COSEAL®, one-fifth volume of COH102 buffer was replaced with 0.1% to 1.0% fluorescein in COH102 buffer, and the PEGs, COH102, and COH206 were added and dissolved. The fluorescence was noted to go away upon dissolving the mixed PEGs, and the color changed to a light yellow. However, when the solution was sprayed with COH206 buffer to make the reaction product COSEAL®, the fluorescence returned. The final fluorescein concentration was 0.01% to 0.1% by weight of the final composition.

On to `O=C1OC2(c3ccc(O)cc3Oc3cc(O)ccc32)c2ccccc21` [Fluorescein, fluorescein], for which the solubility entry was “soluble”.
